Earlier results on one compound are cited in patent US20070116778A1 (priority 2005, published 2007).

The subject of one series is HIV. The settings on record: human, in vivo.

For the compound `CCCCCCCCCCCC(=O)OCC(O)CO` (stereo not drawn) [Monolaurin], the “effect on the pathogen” value with Neisseria gonorrhoae is “dissolves the outer lipid membrane and interferes with transcriptinase production”. For the same compound, in the series on HIV, the “patients with reduced viral load” value was 8 patients and the side effects result was “without any side effects”.
